Measured values as given in US9783518B2, “Therapeutic agent and treatment method for ameliorating uremia” (Toray Industries, Inc., priority 2005, dated 2017).
Entries after “also recorded” stand apart in the source; their conditions may differ.

Key:
[1] = test system: dog with chronic renal failure; test: Clinical score of uremic symptoms in dog with chronic renal failure (Case-H); assay type: in vivo
Procedure: (§1) Testing methods for the patients showing uremia caused by chronic renal failure, employed in Example 4 or later, will now be described. The criteria and evaluation items for the cats and dogs with chronic renal failure are as follows: Diagnosis of uremia and chronic renal failure were performed totally taking clinical findings (including findings of uremia) and the results of the blood test, blood biochemical analysis and urinalysis into consideration. As the clinical findings of uremia, existence and degree of polydipsia and diuresis, dehydration, anorexia, weight loss, vomiting symptom and state of dehydration were observed. Existence of chronic renal failure was judged based on the serum Cre value as generally employed. As reference data for grasping the degree of progress of chronic renal failure, BUN value was also monitored.
Evaluation of degree of improvement of the uremic symptoms was carried out as follows: From the clinical symptoms related to uremia, activity and appetite, which are unlikely to be overlooked and which can be observed universally from before to after the test period, were selected. […] The evaluation was carried out based on the total points (full points were 5 points). Thus, a higher point indicates more improvements in the clinical symptoms. […]

[2] = test system: cats with chronic renal failure; test: Blood biochemical analysis and urinalysis (BUN, serum Cre, glucose) in cats with chronic renal failure; assay type: in vivo, cat
Procedure: as §1
In the blood test, RBC, WBC, PCV, Hg and PLT were measured. In the blood biochemical analysis, TP, Tcho, AST, ALT, ALP, Tbil, BUN, creatinine, calcium, inorganic phosphorus, glucose, sodium ion, potassium ion and chloride ion were measured. In the urinalysis, protein amount, pH, occult blood, bilirubin and glucose were measured. To eliminate the circadian rhythm and influence by meals on the values of blood biochemical markers, every blood collection was carried out in the morning before feeding (at fasting).
As a more specific criterion for chronic renal failure in cats and dogs in the present Examples, a serum Cre value of 1.4 mg/dL in the blood test was employed. Serum Cre value was measured by creatinine deaminase-amidohydrolase method, and the BUN value as reference data for grasping the degree of progress of chronic renal failure was measured by urease-GLDH method.
Administration of beraprost sodium was conducted by orally administering the tablet with a content of 150 μg/tablet (Example 1) twice a day (300 μg/head/day). The administration was conducted every day and continued basically for 6 months, and in cases where the owner desired, the administration was continued even after the test period. The Examples of the present invention include both cases where the dosing period was less than 6 months and more than 6 months.

[3] = test system: dog with chronic renal failure; test: BUN and serum Cre in dog with chronic renal failure (Case-H); assay type: in vivo; settings: 150 μg/capsule oral twice a day alone
Procedure: In view of this, after obtaining consent by the client, treatment with Covalzin was stopped, and switched to administration of beraprost sodium alone. Beraprost sodium was diluted with polyethylene glycol (Wako) to attain a dose of 150 μg/capsule, and was divided into capsules (size 5 Shionogi Qualicaps). Beraprost sodium was orally administered twice a day at fasting. […] In the above-described series of therapy, feeding of a formula meal and infusion were not performed at all.

[4] = test system: patients with diabetic nephropathy; settings: cited from earlier work
[5] = test system: cats with chronic renal failure; test: Clinical score of uremic symptoms (activity + appetite) in cats with chronic renal failure; assay type: in vivo, cat; settings: Case-G; 40 μg/head/BID; Day 14, kept up to Day 56; 3 points before
cats with renal failure = test: Body weight of cats with renal failure during administration; assay type: in vivo, cat
Procedure: […] The administration was conducted every day and continued basically for 6 months, and in cases where the owner desired, the administration was continued even after the test period. The Examples of the present invention include both cases where the dosing period was less than 6 months and more than 6 months.

[6] = Case-A, 150 μg oral BID alone, from start of administration
[7] = Case-A, 6 months after termination (12 months after start)
[8] = Case-B, daily administration for 1 and half years
[9] = Case-E, combination therapy, first about 3 months
[10] = Case-G cat, before the administration (baseline)

SMILES: CC#CC[C@@H](C)[C@H](O)/C=C/[C@@H]1[C@H]2c3cccc(CCCC(=O)[O-])c3O[C@H]2C[C@H]1O.[Na+] (mixture of isomers) [beraprost sodium, Sodium rac-(1R,2R,3aS,8bS)-2,3,3a,8b-tetrahydro-2-hydroxy-1-[(E)-(3S,4RS)-3-hydroxy-4-methyloct-1-en-6-ynyl]-1H-cyclopenta[b][1]benzofuran-5-butanoate]
- clinical score (full points 5) ([1]; 150 μg/capsule oral twice a day alone, first month, 3 points before): 4 points
- uremic symptoms ([1]; after start of beraprost sodium alone): quickly remitted and ameliorated
- time at which BUN reached the minimum value ([2]; Case-A, 150 μg oral BID alone): second
- time at which serum Cre reached the minimum value ([2]; Case-A, 150 μg oral BID alone): fifth
- BUN [2, 6]: decreased
- serum Cre [2, 6]: decreased
- BUN at follow up [2, 7]: remained within the normal ranges; also recorded: maintained at normal levels
- serum Cre value at follow up [2, 7]: remained within the normal ranges; also recorded: maintained at normal levels
- BUN [2, 8]: maintained at the normal levels
- Cre [2, 8]: maintained at the normal levels
- BUN value ([2]; Case-B, first to second month): tendency that BUN value and serum Cre value increase
- serum Cre value ([2]; Case-B, first to second month): tendency that BUN value and serum Cre value increase
- BUN value ([2]; Case-B, from the fourth month): sharply decreased to the normal values
- serum Cre value ([2]; Case-B, from the fourth month): sharply decreased to the normal values
- BUN value ([2]; Case-C, during administration): continuously increased
- serum Cre value ([2]; Case-C, during administration): did not change or slightly increased
- BUN value ([2]; Case-D, after administration): continuously increased
- serum Cre value ([2]; Case-D, after administration): kept a high value
- BUN value ([2]; Case-E, 7th to 8th month): largely increased
- Cre value ([2]; Case-E, 7th to 8th month): kept high
- BUN value [2, 9]: continuously increased
- serum Cre value [2, 9]: kept high
- BUN value ([2]; Case-F, after start of beraprost sodium): kept high
- serum Cre value ([2]; Case-F, throughout the entire period): continuously increased
- BUN value [2, 10]: 52.2 mg/dL
- serum Cre value [2, 10]: 2.56 mg/dL
- BUN [3]: did not almost change
- serum Cre value [3]: continuously increased
- urinary microalbumin [4]: decreased
- clinical score (full points 5) [5]: 5 points
- Changes in Body Weight during Administration of Beraprost Sodium (cats with renal failure; Case-A, age 5, month 0): 5.2 kg
- Changes in Body Weight during Administration of Beraprost Sodium (cats with renal failure; Case-A, month 1): 5.5 kg
- Changes in Body Weight during Administration of Beraprost Sodium (cats with renal failure; Case-A, month 2): 5.5 kg
- Changes in Body Weight during Administration of Beraprost Sodium (cats with renal failure; Case-A, month 3): 5.5 kg
- Changes in Body Weight during Administration of Beraprost Sodium (cats with renal failure; Case-A, month 4): 5.7 kg
- Changes in Body Weight during Administration of Beraprost Sodium (cats with renal failure; Case-A, month 5): 5.7 kg
- Changes in Body Weight during Administration of Beraprost Sodium (cats with renal failure; Case-A, month 6): 6.0 kg
- Changes in Body Weight during Administration of Beraprost Sodium (cats with renal failure; Case-B, age 4, month 0): 3.5 kg
- Changes in Body Weight during Administration of Beraprost Sodium (cats with renal failure; Case-B, month 1): 3.6 kg
- Changes in Body Weight during Administration of Beraprost Sodium (cats with renal failure; Case-B, month 2): 3.6 kg
- Changes in Body Weight during Administration of Beraprost Sodium (cats with renal failure; Case-B, month 3): 3.7 kg
- Changes in Body Weight during Administration of Beraprost Sodium (cats with renal failure; Case-B, month 4): 3.9 kg
- Changes in Body Weight during Administration of Beraprost Sodium (cats with renal failure; Case-B, month 5): 4.0 kg
- Changes in Body Weight during Administration of Beraprost Sodium (cats with renal failure; Case-B, month 6): 4.0 kg
- body weight (cats with renal failure; Case-B, with amelioration of uremic symptoms): increased
- Changes in Body Weight during Administration of Beraprost Sodium (cats with renal failure; Case-C, age 16, month −1 (before administration)): 2.8 kg
- Changes in Body Weight during Administration of Beraprost Sodium (cats with renal failure; Case-C, month 0): 2.7 kg
- Changes in Body Weight during Administration of Beraprost Sodium (cats with renal failure; Case-C, month 1): 2.8 kg
- Changes in Body Weight during Administration of Beraprost Sodium (cats with renal failure; Case-C, month 2): 2.9 kg
- Changes in Body Weight during Administration of Beraprost Sodium (cats with renal failure; Case-C, month 3): 2.9 kg
- Changes in Body Weight during Administration of Beraprost Sodium (cats with renal failure; Case-C, month 4): 2.9 kg
- Changes in Body Weight during Administration of Beraprost Sodium (cats with renal failure; Case-C, month 5): 3.0 kg
- Changes in Body Weight during Administration of Beraprost Sodium (cats with renal failure; Case-C, month 6): 3.0 kg
- Changes in Body Weight during Administration of Beraprost Sodium (cats with renal failure; Case-D, age 17, month −1 (before administration)): 4.5 kg
- body weight (cats with renal failure; Case-D, after one month): increased
- Changes in Body Weight during Administration of Beraprost Sodium (cats with renal failure; Case-D, month 0): 4.5 kg
- Changes in Body Weight during Administration of Beraprost Sodium (cats with renal failure; Case-D, month 1): 4.5 kg
- Changes in Body Weight during Administration of Beraprost Sodium (cats with renal failure; Case-D, month 2): 4.9 kg
- Changes in Body Weight during Administration of Beraprost Sodium (cats with renal failure; Case-D, month 3): 4.9 kg
- Changes in Body Weight during Administration of Beraprost Sodium (cats with renal failure; Case-D, month 4): 4.9 kg
- Changes in Body Weight during Administration of Beraprost Sodium (cats with renal failure; Case-D, month 5): 4.9 kg
- Changes in Body Weight during Administration of Beraprost Sodium (cats with renal failure; Case-E, age 14, combination therapy, month 0): 3.5 kg
- Changes in Body Weight during Administration of Beraprost Sodium (cats with renal failure; Case-E, combination therapy, month 1): 3.8 kg
- Changes in Body Weight during Administration of Beraprost Sodium (cats with renal failure; Case-E, combination therapy, month 2): 3.7 kg
- Changes in Body Weight during Administration of Beraprost Sodium (cats with renal failure; Case-E, combination therapy, month 3): 3.6 kg
- Changes in Body Weight during Administration of Beraprost Sodium (cats with renal failure; Case-E, combination therapy, month 4): 3.7 kg
- Changes in Body Weight during Administration of Beraprost Sodium (cats with renal failure; Case-E, combination therapy, month 5): 3.7 kg
- Changes in Body Weight during Administration of Beraprost Sodium (cats with renal failure; Case-E, combination therapy, month 6): 3.6 kg
- Changes in Body Weight during Administration of Beraprost Sodium (cats with renal failure; Case-F, age 11, combination therapy, month 0): 4.7 kg
- Changes in Body Weight during Administration of Beraprost Sodium (cats with renal failure; Case-F, combination therapy, month 1): 5.0 kg
- Changes in Body Weight during Administration of Beraprost Sodium (cats with renal failure; Case-F, combination therapy, month 2): 5.0 kg
- Changes in Body Weight during Administration of Beraprost Sodium (cats with renal failure; Case-F, combination therapy, month 3): 5.5 kg
- Changes in Body Weight during Administration of Beraprost Sodium (cats with renal failure; Case-F, combination therapy, month 4): 5.5 kg
- Changes in Body Weight during Administration of Beraprost Sodium (cats with renal failure; Case-F, combination therapy, month 5): 5.7 kg
- Changes in Body Weight during Administration of Beraprost Sodium (cats with renal failure; Case-F, combination therapy, month 6): 5.8 kg
- body weight (cats with renal failure; Case-G, 40 μg/head/BID, Day 14): 3.83 kg
- body weight (cats with renal failure; Case-G, 40 μg/head/BID, Day 56): 3.95 kg
- body weight (cats with renal failure; Case-G, before the administration (baseline)): 3.2 kg
